Data taken from ChEMBL document CHEMBL3390847, “Boronic acids in medicinal chemistry: anticancer, antibacterial and antiviral applications” (Medchemcomm, 2010).
Values after ≈ are worked out from the molar mass of the structure shown.

Columns and labels:
Tubulin [1] = test: Inhibition of tubulin polymerization (unknown origin); type: protein-complex assay, Homo sapiens
MCF7 = test: Cytotoxicity against human MCF7 cells; type: functional, cell-based
[2] = Inhibition of tubulin polymerization in rat A10 cells assessed as microtubule loss; type: cell-based
[3] = biological target: T1, Proteasome Macropain subunit MB1 (Homo sapiens, UniProt P28074); test: Inhibition of chymotrypsin-like activity of proteasome beta5 subunit (unknown origin)
T1 sequence (P28074 whole entry): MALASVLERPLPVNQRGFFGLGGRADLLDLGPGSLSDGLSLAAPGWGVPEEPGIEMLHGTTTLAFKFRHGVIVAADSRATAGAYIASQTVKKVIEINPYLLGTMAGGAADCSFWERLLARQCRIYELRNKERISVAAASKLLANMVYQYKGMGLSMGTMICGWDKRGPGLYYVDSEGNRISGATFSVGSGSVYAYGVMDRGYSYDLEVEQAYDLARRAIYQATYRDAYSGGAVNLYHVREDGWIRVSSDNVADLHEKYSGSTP

[4] = biological target: T2, Proteasome subunit beta type-7 (Homo sapiens, UniProt Q99436); test: Inhibition of trypsin-like activity of proteasome beta7 subunit (unknown origin)
T2 sequence (Q99436 whole entry): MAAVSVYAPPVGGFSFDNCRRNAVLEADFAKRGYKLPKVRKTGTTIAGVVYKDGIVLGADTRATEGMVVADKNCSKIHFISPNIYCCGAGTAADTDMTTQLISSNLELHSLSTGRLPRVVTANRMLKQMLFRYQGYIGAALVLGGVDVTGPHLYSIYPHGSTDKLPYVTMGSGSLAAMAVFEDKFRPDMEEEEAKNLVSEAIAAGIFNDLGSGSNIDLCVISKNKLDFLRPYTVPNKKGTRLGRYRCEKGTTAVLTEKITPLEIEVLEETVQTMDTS

[5] = Inhibition of post-glutamyl peptide hydrolysis proteasome subunit (unknown origin); parameters: species or system Homo sapiens
Staphylococcus aureus = test: Antimicrobial activity against Staphylococcus aureus […] after 18 hrs by broth macrodilution assay; type: functional
[6] = tested on: Staphylococcus epidermidis; test: Antimicrobial activity against Staphylococcus epidermidis ATCC 12228 after 18 hrs by broth macrodilution assay; type: functional; conditions: ATCC 12228, 18 h
Bacillus subtilis = test: Antimicrobial activity against Bacillus subtilis ATCC 23857 after 18 hrs by broth macrodilution assay; type: functional; conditions: ATCC 23857, 18 h
Moraxella catarrhalis = test: Antimicrobial activity against Moraxella catarrhalis after 18 hrs by broth macrodilution assay; type: functional
[7] = Inhibition of YFV recombinant NS3 protease expressed in Escherichia coli using Bz-nKRR-AMC as substrate after 30 mins; parameters: species or system Yellow fever virus
B16 = test: Cytotoxicity against mouse B16 cells; type: functional, cell-based
[8] = Cytotoxicity against human 1-87 cells; type: functional, cell-based
Tubulin [9] = test: Inhibition of tubulin polymerization (unknown origin) after 30 mins; type: protein-complex assay, Homo sapiens
[10] = Inhibition of alpha-chymotrypsin (unknown origin); parameters: species or system Homo sapiens
[11] = Inhibition of beta-lactamase SHV-1 (unknown origin) expressed in Escherichia coli DH10B using nitrocefin as substrate
[12] = Inhibition of beta-lactamase SHV-1 D104K/G238S mutant (unknown origin) expressed in Escherichia coli DH10B using nitrocefin as substrate
[13] = Inhibition of AmpC beta-lactamase N289A mutant (unknown origin)
[14] = Inhibition of TEM-1 (unknown origin)
[15] = Inhibition of TEM-30 (unknown origin)

SMILES: COc1ccc(/C=C/c2cc(OC)c(OC)c(OC)c2)cc1B(O)O
- IC50 (Tubulin [1]): 7.8 µM
- IC50 (MCF7): 0.47 µM
- EC50 [2]: > 15 µM

SMILES: CC(C)C[C@H](NC(=O)[C@H](Cc1ccccc1)NC(=O)[C@H](Cc1ccccc1)NC(=O)c1cnccn1)B(O)O
- IC50 [3]: 0.55 nM
- IC50 [4]: > 0.02 µM
- IC50 [5]: 0.0109 µM

SMILES: Clc1cccc(B(Oc2ccc(Cl)c3cccnc23)c2cccc(Cl)c2)c1
- MIC (Staphylococcus aureus): 0.5 µg/mL (≈ 1.21 µM)
- MIC [6]: 0.25 µg/mL (≈ 0.606 µM)
- MIC (Bacillus subtilis): 32 µg/mL (≈ 77.6 µM)
- MIC (Moraxella catarrhalis): ≤ 0.125 µg/mL

SMILES: CCCC[C@H](NC(=O)c1ccccc1)C(=O)N[C@@H](CCCCN)C(=O)N[C@@H](CCCCN)C(=O)N[C@@H](CCCNC(=N)N)B(O)O
- Ki [7]: 0.05 µM

SMILES: COc1cc(C(=O)/C=C/c2cc(OC)c(OC)c(OC)c2)ccc1B(O)O
- IC50 (Tubulin [1]): > 40 µM
- IC50 (MCF7): > 2.5 µM
- EC50 [2]: > 15 µM

SMILES: C=CB(Oc1cccc2cccnc12)c1ccccc1
- MIC (Staphylococcus aureus): 2 µg/mL (≈ 7.72 µM)
- MIC [6]: 1 µg/mL (≈ 3.86 µM)
- MIC (Moraxella catarrhalis): 2 µg/mL (≈ 7.72 µM)

SMILES: COc1cc(/C=C\c2ccc(B(O)O)cc2)cc(OC)c1OC
- IC50 (B16): 2.6 µM
- IC50 [8]: 3.2 µM
- IC50 (Tubulin [9]): > 100 µM

SMILES: OCc1ccccc1 [BENZYL ALCOHOL]
- Ki [10]: 10000 µM

SMILES: CC(=O)NCB(O)O [ACETAMIDOMETHYLBORONIC ACID]
- Ki [11]: 8.9 µM
- Ki [12]: 1.1 µM

SMILES: CC(C)C[C@H](NC(=O)[C@H](Cc1ccccc1)NC(=O)[C@H](Cc1ccc2ccccc2c1)NC(=O)c1cnccn1)B(O)O
- IC50 [3]: 0.42 nM
- IC50 [4]: > 0.02 µM
- IC50 [5]: 0.00443 µM

SMILES: COc1cc(/C=C\c2ccc(B(O)O)cc2)cc(OC)c1
- IC50 (B16): 12 µM
- IC50 [8]: 9.1 µM
- IC50 (Tubulin [9]): 79 µM

SMILES: Clc1ccc(C(Oc2cccc3cccnc23)c2ccc(Cl)cc2)cc1
- MIC (Staphylococcus aureus): > 64 µg/mL
- MIC [6]: > 64 µg/mL
- MIC (Bacillus subtilis): > 64 µg/mL

SMILES: CC(C)C[C@H](NC(=O)[C@H](Cc1ccc2ccccc2c1)NC(=O)[C@H](CC(C)C)NC(=O)c1cnccn1)B1O[C@@H]2[C@H]3CC[C@H](C3(C)C)[C@]2(C)O1
- IC50 [3]: 0.38 nM
- IC50 [4]: > 0.02 µM
- IC50 [5]: 0.00391 µM

SMILES: CC(C)C[C@H](NC(=O)[C@H](Cc1ccccc1)NC(=O)[C@H](Cc1ccc2ccccc2c1)NC(=O)c1cnccn1)B1O[C@@H]2[C@H]3CC[C@H](C3(C)C)[C@]2(C)O1
- IC50 [3]: 0.22 nM
- IC50 [4]: > 0.02 µM
- IC50 [5]: > 0.02 µM

SMILES: OB(O)c1ccccc1 [PHENYLBORONIC ACID]
- Ki [10]: 196 µM

SMILES: CC(C)C[C@H](NC(=O)[C@H](Cc1ccc(O)cc1)NC(=O)[C@H](Cc1ccccc1)NC(=O)c1cnccn1)B(O)O
- IC50 [3]: 0.39 nM
- IC50 [4]: > 0.02 µM
- IC50 [5]: 0.00401 µM

SMILES: CC(C)C[C@H](NC(=O)[C@H](Cc1ccc2ccccc2c1)NC(=O)[C@H](CC(C)C)NC(=O)c1cnccn1)B(O)O
- IC50 [3]: 0.08 nM
- IC50 [4]: > 0.02 µM
- IC50 [5]: 0.00363 µM

SMILES: C=CB(Oc1cccc2cccnc12)c1cccc(Cl)c1
- MIC (Staphylococcus aureus): 2 µg/mL (≈ 6.81 µM)
- MIC [6]: 1 µg/mL (≈ 3.41 µM)
- MIC (Bacillus subtilis): 4 µg/mL (≈ 13.6 µM)
- MIC (Moraxella catarrhalis): 4 µg/mL (≈ 13.6 µM)

SMILES: COc1ccc(/C=C\c2cc(OC)c(OC)c(OC)c2)cc1O [COMBRETASTATIN A4]
- IC50 (MCF7): 0.032 µM
- EC50 [2]: < 0.025 µM
- IC50 (B16): 0.0046 µM
- IC50 [8]: 0.0085 µM

SMILES: O=C(O)/C=C/c1cccc([C@H](NC(=O)Cc2cccs2)B(O)O)c1
- Ki [13]: 0.0028 µM
- Ki [14]: 0.106 µM
- Ki [15]: 3.8 µM
